Experimental findings from patent US20130053430A1, “MODULATION OF CETP EXPRESSION” (Isis Pharmaceuticals, Inc., priority 2010, published 2013) are described below.

Strand notation (5' to 3'): a small letter for the sugar, then the base; units joined by * are phosphorothioate-linked, units joined directly phosphodiester-linked; [ ] holds rarer units or linkages, { } end groups; capitals alone tell only the bases. e = 2'-O-(2-methoxyethyl) (MOE); [5mC] = 5-methylcytosine; d = 2'-deoxy (DNA)

In data set [1] the test system is human CETP mRNA. In words: Antisense inhibition of human CETP mRNA in SW872 liposarcoma cells (Example 1). The class given is cell-based. The following applies: 150 nM antisense oligonucleotide, lipofectin, ~24 hours, relative to untreated control cells. The procedure: Antisense oligonucleotides targeted to a CETP nucleic acid were tested for their effect on CETP mRNA transcript in vitro. Cultured SW872 liposarcoma cells at a density of 50,000 cells per well in a 24-well plate were transfected using lipofectin reagent with 150 nM antisense oligonucleotide. After approximately 24 hours, RNA was isolated from the cells and CETP mRNA levels were measured by quantitative real-time PCR. A human primer probe set (forward sequence […], designated herein as SEQ ID NO: 38; reverse sequence GGCTCACGCCTTTGCTGTT, designated herein as SEQ ID NO: 39; probe sequence […], designated herein as SEQ ID NO: 40) was used to quantitate CETP mRNA. CETP mRNA transcript levels were adjusted according to total RNA content, as measured by the house-keeping gene, GAPDH mRNA levels. GAPDH was measured using a primer probe set with the sequence as set forth in SEQ ID NOs: 10, 11, 13. Results are presented as percent inhibition of CETP, relative to untreated control cells.
The antisense oligonucleotides in Table 3 are 5-10-5 gapmers, where the gap segment comprises ten 2′-deoxynucleosides and each wing segment comprises five 2′-MOE nucleosides. Each nucleotide in the 5′ wing segment and each nucleotide in the 3′ wing segment has a 2′-MOE modification. The internucleoside linkages throughout each gapmer are phosphorothioate (P═S) linkages. All cytosine residues throughout each gapmer are 5-methylcytosines. ‘Target start site’ indicates the 5′-most nucleotide to which the antisense oligonucleotide is targeted. ‘Target stop site’ indicates the 3′-most nucleotide to which the antisense oligonucleotide is targeted. All the antisense oligonucleotides listed in Table 3 target human CETP mRNA, designated herein as SEQ ID NO: 1 (GENBANK Accession No. M30185.1).

Data set [2] deals with human CETP mRNA. Put plainly: Antisense inhibition of human CETP mRNA in primary hepatocytes from huCETP transgenic mice (Example 4). The format is cell-based, mouse. Particulars: cytofectin, ~24 hours. How it is done: Transgenic mice expressing human CETP, controlled by its natural flanking region, increase expression of this gene in response to hypercholesterolemia (Jiang, X. C. et al., J. Clin. Invest. 1992. 90: 1290-1295). These mice were utilized for the following studies. Antisense oligonucleotides targeted to a CETP nucleic acid and described in Example 1 were tested for their effect on CETP mRNA transcript in vitro. Cultured primary hepatocytes from huCETP transgenic mice, at a density of 17,500 cells per well in a 96-well plate, were transfected using cytofectin reagent with 100 nM or 200 nM antisense oligonucleotide. After approximately 24 hours, RNA was isolated from the cells and CETP mRNA levels were measured by quantitative real-time PCR. CETP mRNA transcript levels were adjusted according to total RNA content, as measured by the house-keeping gene, GAPDH mRNA levels. Results are presented in Table 6 as percent inhibition of CETP, relative to untreated control cells.

Regarding “ISIS 349462: 5-10-5 MOE gapmer ATCTGGATGTTGTGCAACCC (eA*eT*e[5mC]*eT*eG*dG*dA*dT*dG*dT*dT*dG*dT*dG*d[5mC]*eA*eA*e[5mC]*e[5mC]*e[5mC])”, in data set [1], the “% inhibition” value came out at 76%. In addition, the “Percent inhibition of human CETP mRNA” value in data set [2] (100 nM) was 60%; in data set [2] (200 nM) it was 76%.
As to “ISIS 349463: 5-10-5 MOE gapmer CTGCTGGCGATGGACAAGTG (e[5mC]*eT*eG*e[5mC]*eT*dG*dG*d[5mC]*dG*dA*dT*dG*dG*dA*d[5mC]*eA*eA*eG*eT*eG)”, the “% inhibition” value in data set [1] is reported as 77%. The “Percent inhibition of human CETP mRNA” value in data set [2] (100 nM) is given as 58%; in data set [2] (200 nM), 62%.
On the same counts, the results for “ISIS 349464: 5-10-5 MOE gapmer CTTCCACCAGCTCCACCTGG (e[5mC]*eT*eT*e[5mC]*e[5mC]*dA*d[5mC]*d[5mC]*dA*dG*d[5mC]*dT*d[5mC]*d[5mC]*dA*e[5mC]*e[5mC]*eT*eG*eG)” are 50%, 8% and 56%.
On the same counts, the results for “ISIS 349466: 5-10-5 MOE gapmer CCACAGACACGTTCTGAATG (e[5mC]*e[5mC]*eA*e[5mC]*eA*dG*dA*d[5mC]*dA*d[5mC]*dG*dT*dT*d[5mC]*dT*eG*eA*eA*eT*eG)” are 15%, 57% and 81%.
Consider “ISIS 349467: 5-10-5 MOE gapmer GTGGTGTAGCCATACTTCAG (eG*eT*eG*eG*eT*dG*dT*dA*dG*d[5mC]*d[5mC]*dA*dT*dA*d[5mC]*eT*eT*e[5mC]*eA*eG)”, for which the “% inhibition” value in data set [1] was determined as 35%. Further, the “Percent inhibition of human CETP mRNA” value in data set [2] (100 nM) was determined as 57%; in data set [2] (200 nM) it was 51%.
As for “ISIS 349468: 5-10-5 MOE gapmer TCAATACCCAGCCACCAGGC (eT*e[5mC]*eA*eA*eT*dA*d[5mC]*d[5mC]*d[5mC]*dA*dG*d[5mC]*d[5mC]*dA*d[5mC]*e[5mC]*eA*eG*eG*e[5mC])”, the “% inhibition” value in data set [1] amounted to 33%. In addition, the entries for the “Percent inhibition of human CETP mRNA” value in data set [2] (100 nM) and in data set [2] (200 nM) were 53% and 50%, respectively.
On the same counts, the results for “ISIS 349469: 5-10-5 MOE gapmer TCTCGAAGTCAATGGACTGA (eT*e[5mC]*eT*e[5mC]*eG*dA*dA*dG*dT*d[5mC]*dA*dA*dT*dG*dG*eA*e[5mC]*eT*eG*eA)” are 70%, 40% and 66%.
The corresponding values for “ISIS 349470: 5-10-5 MOE gapmer GAGGTCAATGGCAGAGTCGA (antisense eG*eA*eG*eG*eT*d[5mC]*dA*dA*dT*dG*dG*d[5mC]*dA*dG*dA*eG*eT*e[5mC]*eG*eA)” are 59%, 64% and 49%.
For “ISIS 349471: 5-10-5 MOE gapmer GTCAGCTGTGTGTTGATCTG (eG*eT*e[5mC]*eA*eG*d[5mC]*dT*dG*dT*dG*dT*dG*dT*dT*dG*eA*eT*e[5mC]*eT*eG)”, the “% inhibition” value in data set [1] was determined as 32%. The results for the “Percent inhibition of human CETP mRNA” value in data set [2] (100 nM) and in data set [2] (200 nM) were 70% and 66%, respectively.
The corresponding values for “ISIS 349472: 5-10-5 MOE gapmer GCACTCTACCAGAGTCACAG (eG*e[5mC]*eA*e[5mC]*eT*d[5mC]*dT*dA*d[5mC]*d[5mC]*dA*dG*dA*dG*dT*e[5mC]*eA*e[5mC]*eA*eG)” are 39%, 25% and 45%.
As for “ISIS 349473: 5-10-5 MOE gapmer AGCAGCTTATGGAAAGACAG (eA*eG*e[5mC]*eA*eG*d[5mC]*dT*dT*dA*dT*dG*dG*dA*dA*dA*eG*eA*e[5mC]*eA*eG)”, the “% inhibition” value in data set [1] was 72%. Moreover, the “Percent inhibition of human CETP mRNA” value came out at 55% in data set [2] (100 nM) and 61% in data set [2] (200 nM).
On the same counts, the results for “ISIS 349474: 5-10-5 MOE gapmer CGCTCCCCTTGGAGATGCAG (e[5mC]*eG*e[5mC]*eT*e[5mC]*d[5mC]*d[5mC]*d[5mC]*dT*dT*dG*dG*dA*dG*dA*eT*eG*e[5mC]*eA*eG)” are 76%, 64% and 48%.
On the same counts, the results for “ISIS 349475: 5-10-5 MOE gapmer GCTTGATCCACCCAGGCTCT (eG*e[5mC]*eT*eT*eG*dA*dT*d[5mC]*d[5mC]*dA*d[5mC]*d[5mC]*d[5mC]*dA*dG*eG*e[5mC]*eT*e[5mC]*eT)” are 5%, 0% and 0%.
As to “ISIS 349476: 5-10-5 MOE gapmer CCTTCAGGACCAGCTTCAGG (e[5mC]*e[5mC]*eT*eT*e[5mC]*dA*dG*dG*dA*d[5mC]*d[5mC]*dA*dG*d[5mC]*dT*eT*e[5mC]*eA*eG*eG)”, the “% inhibition” value in data set [1] is recorded as 59%. The “Percent inhibition of human CETP mRNA” value is 49% in data set [2] (100 nM) and 60% in data set [2] (200 nM).
On the same counts, the results for “ISIS 349477: 5-10-5 MOE gapmer GATCTCTTTGCAGATCTGTC (eG*eA*eT*e[5mC]*eT*d[5mC]*dT*dT*dT*dG*d[5mC]*dA*dG*dA*dT*e[5mC]*eT*eG*eT*e[5mC])” are 41%, 44% and 47%.
On the same counts, the results for “ISIS 349478: 5-10-5 MOE gapmer ATGATGTTAGAGATGACGTT (eA*eT*eG*eA*eT*dG*dT*dT*dA*dG*dA*dG*dA*dT*dG*eA*e[5mC]*eG*eT*eT)” are 48%, 6% and 33%.
On to “ISIS 349479: 5-10-5 MOE gapmer CTGGCAGCCCTTGTCTGGAC (e[5mC]*eT*eG*eG*e[5mC]*dA*dG*d[5mC]*d[5mC]*d[5mC]*dT*dT*dG*dT*d[5mC]*eT*eG*eG*eA*e[5mC])”, for which, in data set [1], the “% inhibition” value was found to be 67%. Besides, the “Percent inhibition of human CETP mRNA” value in data set [2] (100 nM) stood at 80%; in data set [2] (200 nM) it was 66%.
“ISIS 349480: 5-10-5 MOE gapmer TGTCTCCATCTGAAAGGATG (eT*eG*eT*e[5mC]*eT*d[5mC]*d[5mC]*dA*dT*d[5mC]*dT*dG*dA*dA*dA*eG*eG*eA*eT*eG)”: in data set [1], the “% inhibition” value turned out to be 74%. The “Percent inhibition of human CETP mRNA” value in data set [2] (100 nM) is on record as 46%; in data set [2] (200 nM) it was 40%.
On the same counts, the results for “ISIS 349481: 5-10-5 MOE gapmer AGGTAGGAGGCTGTGATGAC (eA*eG*eG*eT*eA*dG*dG*dA*dG*dG*d[5mC]*dT*dG*dT*dG*eA*eT*eG*eA*e[5mC])” are 66%, 79% and 65%.
The corresponding values for “ISIS 349482: 5-10-5 MOE gapmer TGAAATGACCCTTGTGATGG (eT*eG*eA*eA*eA*dT*dG*dA*d[5mC]*d[5mC]*d[5mC]*dT*dT*dG*dT*eG*eA*eT*eG*eG)” are 51%, 11% and 65%.
“ISIS 349484: 5-10-5 MOE gapmer ACCAGAAGTACAGCATGCGG (eA*e[5mC]*e[5mC]*eA*eG*dA*dA*dG*dT*dA*d[5mC]*dA*dG*d[5mC]*dA*eT*eG*e[5mC]*eG*eG)”: the “% inhibition” value in data set [1] worked out at 38%. For the same substance, the “Percent inhibition of human CETP mRNA” value was determined as 34% in data set [2] (100 nM) and 52% in data set [2] (200 nM).
The corresponding values for “ISIS 349486: 5-10-5 MOE gapmer GAAAGCTACCTTGGCCAGCG (eG*eA*eA*eA*eG*d[5mC]*dT*dA*d[5mC]*d[5mC]*dT*dT*dG*dG*d[5mC]*e[5mC]*eA*eG*e[5mC]*eG)” are 55%, 72% and 53%.
For “ISIS 349487: 5-10-5 MOE gapmer CCCATCAGGCTGAGCATGAG (e[5mC]*e[5mC]*e[5mC]*eA*eT*d[5mC]*dA*dG*dG*d[5mC]*dT*dG*dA*dG*d[5mC]*eA*eT*eG*eA*eG)”, the “% inhibition” value in data set [1] came to 73%. Besides, the figures for the “Percent inhibition of human CETP mRNA” value in data set [2] (100 nM) and in data set [2] (200 nM) were 84% and 68%, respectively.
